The supplement of paper PMC12613149

Assays:
[1] = collision cross section (TIMS, N2 drift gas) of the primary ion; higher = larger gas-phase ion size
[2] = reversed-phase LC retention time (C18, 15 min MeOH gradient); higher = more hydrophobic / later elution
[3] = ionization mode: ESI-, ion species: [M-H]-
[4] = ionization mode: ESI+, ion species: [M+H]+
[5] = ionization mode: ESI+, ion species: [M]+

COC(=O)CCc1cc(C(C)(C)C)c(O)c(C(C)(C)C)c1 [Methyl 3-(3,5-di-tert-butyl-4-hydroxyphenyl)propionate]
collision cross section [1, 3]: 179.88 Å²
reversed-phase LC retention time [2, 3]: 17.3 min

CCCc1cc(=O)[nH]c(=S)[nH]1 [6-Propyl-2-thiouracil]
collision cross section [1, 3]: 133.88 Å²
reversed-phase LC retention time [2, 3]: 6.69 min

CC[C@H](C)[C@H]1O[C@]2(C=C[C@@H]1C)C[C@@H]1C[C@@H](C/C=C(\C)[C@@H](O[C@H]3C[C@H](OC)[C@@H](O[C@H]4C[C@H](OC)[C@@H](NC)[C@H](C)O4)[C@H](C)O3)[C@@H](C)/C=C/C=C3\CO[C@@H]4[C@H](O)C(C)=C[C@@H](C(=O)O1)[C@]34O)O2 [Emamectin B1a]
collision cross section [1, 4]: 283.49 Å²
collision cross section [1, 3]: 296.31 Å²
reversed-phase LC retention time [2, 4]: 17 min
reversed-phase LC retention time [2, 3]: 18.9 min

CN/C(=N\[N+](=O)[O-])NCc1cnc(Cl)s1 [Clothianidin]
collision cross section [1, 4]: 153.61 Å²
collision cross section [1, 3]: 150.63 Å²
reversed-phase LC retention time [2, 4]: 8.59 min
reversed-phase LC retention time [2, 3]: 8.62 min

O=c1c(-c2ccc(O)cc2)coc2cc(O)ccc12 [Daidzein]
collision cross section [1, 4]: 155.18 Å²
collision cross section [1, 3]: 157.58 Å²
reversed-phase LC retention time [2, 4]: 11.1 min
reversed-phase LC retention time [2, 3]: 9.78 min

CCCCOC(=O)c1ccc(O)cc1 [Butyl 4-hydroxybenzoate]
collision cross section [1, 3]: 147.76 Å²
reversed-phase LC retention time [2, 3]: 14.2 min

Cc1cccc(C)c1N(Cn1cccn1)C(=O)CS(=O)CC(=O)O (stereo unspecified) [Metazachlor BH 479-9]
collision cross section [1, 4]: 175.08 Å²
collision cross section [1, 3]: 178.82 Å²
reversed-phase LC retention time [2, 4]: 9.7 min
reversed-phase LC retention time [2, 3]: 8.94 min

CON(C)C(=O)Nc1ccc(Br)cc1 [Metobromuron]
collision cross section [1, 4]: 148.37 Å²
reversed-phase LC retention time [2, 4]: 12.6 min

Oc1ccc(C(=C(Cl)Cl)c2ccc(O)cc2)cc1 [Bisphenol C]
collision cross section [1, 3]: 164.81 Å²
reversed-phase LC retention time [2, 3]: 14.5 min

CCCCc1c(C)nc(NCC)nc1OS(=O)(=O)N(C)C [Bupirimate]
collision cross section [1, 4]: 176.08 Å²
reversed-phase LC retention time [2, 4]: 14.7 min

C[P+](c1ccccc1)(c1ccccc1)c1ccccc1 [Methyltriphenylphosphonium]
collision cross section [1, 5]: 162.96 Å²
reversed-phase LC retention time [2, 5]: 10.1 min

CO/N=C(\C(=O)OC)c1ccccc1COc1ccccc1C [Kresoxim-methyl]
collision cross section [1, 4]: 167.17 Å²
reversed-phase LC retention time [2, 4]: 15.4 min

O=C(O)C(F)(F)C(F)(F)C(F)(F)C(F)(F)C(F)(F)C(F)(F)C(F)(F)C(F)(F)C(F)(F)C(F)(F)C(F)(F)F [Perfluorododecanoic acid]
collision cross section [1, 3]: 191.62 Å²
reversed-phase LC retention time [2, 3]: 17 min

Cc1cc(O)cc(C)c1S(C)=O (stereo unspecified) [Methiocarb-sulfoxide phenol]
collision cross section [1, 4]: 138.02 Å²
reversed-phase LC retention time [2, 4]: 8.4 min

CCCCNC(=O)OCC#CI [3-Iodopropynyl butylcarbamate]
collision cross section [1, 4]: 147.73 Å²
reversed-phase LC retention time [2, 4]: 12.8 min

CC(=O)CCc1ccc(O)cc1 [4-(4-Hydroxyphenyl)butan-2-one]
collision cross section [1, 4]: 132.84 Å²
collision cross section [1, 3]: 135.07 Å²
reversed-phase LC retention time [2, 4]: 11.7 min
reversed-phase LC retention time [2, 3]: 11.9 min

C/N=C(/NCC1CCOC1)N[N+](=O)[O-] (stereo unspecified) [Dinotefuran]
collision cross section [1, 4]: 141.96 Å²
collision cross section [1, 3]: 146.7 Å²
reversed-phase LC retention time [2, 4]: 6.27 min
reversed-phase LC retention time [2, 3]: 6.46 min

COc1cc(OC)nc(NC(=O)NS(=O)(=O)N(C)S(C)(=O)=O)n1 [Amidosulfuron]
collision cross section [1, 4]: 175.88 Å²
collision cross section [1, 3]: 179.05 Å²
reversed-phase LC retention time [2, 4]: 12.1 min
reversed-phase LC retention time [2, 3]: 8.09 min

CCc1cc(Cc2cc(CC)cc(C(C)(C)C)c2O)c(O)c(C(C)(C)C)c1 [2,2'-Methylenebis(4-ethyl-6-t-butylphenol)]
collision cross section [1, 3]: 204.77 Å²
reversed-phase LC retention time [2, 3]: 19.3 min

O=S(=O)(O)c1nc2ccccc2s1 [2-Benzothiazolesulfonic acid]
collision cross section [1, 4]: 141.34 Å²
collision cross section [1, 3]: 139.34 Å²
reversed-phase LC retention time [2, 4]: 7.62 min
reversed-phase LC retention time [2, 3]: 7.26 min

CC(=O)CC(c1ccccc1)c1c(O)c2ccccc2oc1=O (stereo unspecified) [Warfarin]
collision cross section [1, 4]: 168.14 Å²
collision cross section [1, 3]: 171.91 Å²
reversed-phase LC retention time [2, 4]: 14.1 min
reversed-phase LC retention time [2, 3]: 10.1 min

CC(C)c1ccc2c(c1)CC[C@H]1[C@](C)(C(=O)O)CCC[C@]21C [Dehydroabietic acid]
collision cross section [1, 3]: 184.43 Å²
reversed-phase LC retention time [2, 3]: 16.5 min

CO/N=C(/C(=O)O)c1ccccc1CO/N=C(\C(=O)O)c1cccc(C(F)(F)F)c1
collision cross section [1, 4]: 195.58 Å²
reversed-phase LC retention time [2, 4]: 13.6 min

O=[N+]([O-])c1ccc(O)c([N+](=O)[O-])c1 [2,4-Dinitrophenol]
collision cross section [1, 3]: 125.27 Å²
reversed-phase LC retention time [2, 3]: 6.09 min

CC(=O)Nc1ccc(S(=O)(=O)Nc2cc(C)on2)cc1 [Acetylsulfamethoxazole]
collision cross section [1, 4]: 169.12 Å²
collision cross section [1, 3]: 165.1 Å²
reversed-phase LC retention time [2, 4]: 9.53 min
reversed-phase LC retention time [2, 3]: 6.92 min

CC(C)NCC(O)COc1cccc2ccccc12 (stereo unspecified) [Propanolol]
collision cross section [1, 4]: 162.88 Å²
reversed-phase LC retention time [2, 4]: 11.3 min

CCCc1nc2c(C)cc(-c3nc4ccccc4n3C)cc2n1Cc1ccc(-c2ccccc2C(=O)O)cc1 [Telmisartan]
collision cross section [1, 4]: 231.26 Å²
collision cross section [1, 3]: 237.73 Å²
reversed-phase LC retention time [2, 4]: 14.2 min
reversed-phase LC retention time [2, 3]: 14.6 min

Oc1ccc2c(c1)[nH]c1ccccc12 [2-Hydroxycarbazole]
collision cross section [1, 3]: 138.96 Å²
reversed-phase LC retention time [2, 3]: 12.4 min

N#Cc1c(O)c(Cl)c(Cl)c(C#N)c1Cl [Chlorothalonil-4-hydroxy]
collision cross section [1, 3]: 135.03 Å²
reversed-phase LC retention time [2, 3]: 11.8 min

CC(C)(C)c1cc(CCC(=O)NCCCCCCNC(=O)CCc2cc(C(C)(C)C)c(O)c(C(C)(C)C)c2)cc(C(C)(C)C)c1O
collision cross section [1, 4]: 263.68 Å²
collision cross section [1, 3]: 254.68 Å²
reversed-phase LC retention time [2, 4]: 17.8 min
reversed-phase LC retention time [2, 3]: 18.3 min

O=P1(NCCCl)OCCCN1CCCl (stereo unspecified) [Ifosfamide]
collision cross section [1, 4]: 148.36 Å²
reversed-phase LC retention time [2, 4]: 10.2 min

C#C[C@]1(O)CC[C@H]2[C@@H]3CCc4cc(O)ccc4[C@H]3CC[C@@]21C [17-alpha-Ethinylestradiol]
collision cross section [1, 3]: 182.24 Å²
reversed-phase LC retention time [2, 3]: 14.3 min

NC(=O)N1c2ccccc2C=Cc2cc(O)ccc21 [2-Hydroxycarbamazepine]
collision cross section [1, 4]: 155.33 Å²
reversed-phase LC retention time [2, 4]: 10.3 min

CCCCCCCCCCCCN(C)C [N,N-Dimethyldodecylamine]
collision cross section [1, 4]: 169.68 Å²
reversed-phase LC retention time [2, 4]: 15.4 min

N#CCNC(=O)c1cnccc1C(F)(F)F [Flonicamid]
collision cross section [1, 4]: 149.83 Å²
reversed-phase LC retention time [2, 4]: 7.31 min

COC=C(C(=O)OC)c1ccccc1Oc1cc(Oc2ccccc2C#N)ncn1 [Azoxystrobin]
collision cross section [1, 4]: 196.56 Å²
reversed-phase LC retention time [2, 4]: 13.8 min

COc1ccc2[nH]cc(CCNC(C)=O)c2c1 [Melatonin]
collision cross section [1, 4]: 153.65 Å²
collision cross section [1, 3]: 154.96 Å²
reversed-phase LC retention time [2, 4]: 9.66 min
reversed-phase LC retention time [2, 3]: 9.81 min

O=C(O)C(F)(F)C(F)(F)C(F)(F)C(F)(F)C(F)(F)C(F)(F)C(=O)O [Perfluorosuberic acid]
collision cross section [1, 3]: 143.37 Å²
reversed-phase LC retention time [2, 3]: 6.68 min

O=C(O)C(F)(F)C(F)(F)C(F)(F)OC(F)(F)F [Perfluoro-4-methoxybutanoic acid]
collision cross section [1, 3]: 133.26 Å²
reversed-phase LC retention time [2, 3]: 11.4 min

CC(C)CCCCOC(=O)c1ccccc1C(=O)OCCCCC(C)C [Diisoheptyl phthalate]
collision cross section [1, 4]: 204.46 Å²
reversed-phase LC retention time [2, 4]: 18.6 min

Nc1ccc(Oc2ccc(N)cc2)cc1 [4,4'-Oxydianiline]
collision cross section [1, 4]: 159.82 Å²
reversed-phase LC retention time [2, 4]: 4.06 min

CCCCCCCCCCCCS(=O)(=O)O [1-Dodecanesulfonic acid]
collision cross section [1, 3]: 165.42 Å²
reversed-phase LC retention time [2, 3]: 16.1 min

NC(=O)c1c(Cl)c(Cl)cc(C(=O)O)c1Cl
collision cross section [1, 3]: 155.56 Å²
reversed-phase LC retention time [2, 3]: 4.88 min

CN(C)c1ccc(C(=O)c2ccc(N(C)C)cc2)cc1 [Michler's ketone]
collision cross section [1, 4]: 166.78 Å²
reversed-phase LC retention time [2, 4]: 14.9 min

O=C(O)CCCCCCCCC(=O)O [Sebacic acid]
collision cross section [1, 4]: 176.16 Å²
collision cross section [1, 3]: 142.73 Å²
reversed-phase LC retention time [2, 4]: 17 min
reversed-phase LC retention time [2, 3]: 3.2 min

O=C(O)C(F)(F)C(F)(F)C(F)(F)C(F)(F)C(F)(F)C(F)(F)C(F)(F)C(F)(F)C(F)(F)C(F)(F)C(F)(F)C(F)(F)C(F)(F)F [Perfluorotetradecanoic acid]
collision cross section [1, 3]: 209.23 Å²
reversed-phase LC retention time [2, 3]: 17.6 min

O=S(=O)(O)c1ccc2ccccc2c1 [2-Naphthalenesulfonic acid]
collision cross section [1, 3]: 142.13 Å²
reversed-phase LC retention time [2, 3]: 8.49 min

O=C(O)C(F)(OC(F)(F)C(F)(F)C(F)(F)F)C(F)(F)F (stereo unspecified) [HFPO-DA]
collision cross section [1, 3]: 206.28 Å²
reversed-phase LC retention time [2, 3]: 13 min

Cn1cnc2c1c(=O)[nH]c(=O)n2C [Theobromine]
collision cross section [1, 4]: 130.33 Å²
reversed-phase LC retention time [2, 4]: 5.81 min

O=c1c(-c2ccc(O)cc2)coc2cc(O)cc(O)c12 [Genistein]
collision cross section [1, 4]: 160.2 Å²
collision cross section [1, 3]: 159.59 Å²
reversed-phase LC retention time [2, 4]: 11.9 min
reversed-phase LC retention time [2, 3]: 10.2 min

C[N+](C)(C)CC(O)CCl (stereo unspecified) [(3-Chloro-2-hydroxypropyl)trimethylammonium]
collision cross section [1, 5]: 127.94 Å²
reversed-phase LC retention time [2, 5]: 1.03 min

O=C1NS(=O)(=O)c2ccccc21 [Saccharin]
collision cross section [1, 3]: 128.86 Å²
reversed-phase LC retention time [2, 3]: 4.8 min

O=P(OCC(Br)CBr)(OCC(Br)CBr)OCC(Br)CBr (stereo unspecified) [Tris(2,3-dibromopropyl)phosphate]
collision cross section [1, 4]: 195.61 Å²
reversed-phase LC retention time [2, 4]: 16 min

Cc1ccc(OP(=O)(Oc2ccc(C)cc2)Oc2ccc(C)cc2)cc1 [Tricresylphosphate]
collision cross section [1, 4]: 190.01 Å²
reversed-phase LC retention time [2, 4]: 17.2 min

COC[P+](c1ccccc1)(c1ccccc1)c1ccccc1 [(Methoxymethyl)triphenylphosphonium]
collision cross section [1, 5]: 170.42 Å²
reversed-phase LC retention time [2, 5]: 10.6 min

Cc1ccccc1N=C(N)Nc1ccccc1C [1,3-Di-o-tolylguanidine]
collision cross section [1, 4]: 157.64 Å²
collision cross section [1, 3]: 158.32 Å²
reversed-phase LC retention time [2, 4]: 9.72 min
reversed-phase LC retention time [2, 3]: 11 min

CC(C1CC1)C(O)(Cn1cncn1)c1ccc(Cl)cc1 (stereo unspecified) [Cyproconazole_1]
collision cross section [1, 4]: 170.22 Å²
reversed-phase LC retention time [2, 4]: 14.4 min

CCC(Cc1ccccc1)(C(=O)c1ccc(N2CCOCC2)cc1)N(C)C (stereo unspecified) [Irgacure 369]
collision cross section [1, 4]: 196.72 Å²
reversed-phase LC retention time [2, 4]: 11.3 min

CC(Cc1ccc(C(C)(C)C(=O)O)cc1)CN1CC(C)OC(C)C1 (stereo unspecified) [Fenpropimorph acid]
collision cross section [1, 4]: 177.46 Å²
collision cross section [1, 3]: 188.8 Å²
reversed-phase LC retention time [2, 4]: 10.8 min
reversed-phase LC retention time [2, 3]: 14.3 min

O=S(=O)(O)CCNC1CCCCC1 [2-(Cyclohexylamino)-ethansulfonic acid]
collision cross section [1, 4]: 148.57 Å²
collision cross section [1, 3]: 148.72 Å²
reversed-phase LC retention time [2, 4]: 5.19 min
reversed-phase LC retention time [2, 3]: 6.1 min
